Literature values, collected in US20200261400A1, “METHOD FOR LONG-TERM TREATMENT OF ROSACEA” (Sol-Gel Technologies Ltd., priority 2019, published 2020).

Test system: rosacea lesions
Details: BPO as the sole active agent

## O=C(OOC(=O)c1ccccc1)c1ccccc1 [BPO, Benzoyl peroxide]
  response of lesions: unresponsive
